This note sets out measurements from US11590116B2 (THERAVANCE BIOPHARMA R&D IP, LLC, priority 2019, dated 2023).

Some results are limits rather than exact numbers.

For experiment [1], the target named is T1, recombinant human ALK5 (TGF-βR1) protein (Homo sapiens, UniProt P36897).
T1 construct: purchased Life Technologies PR9075A
T1 sequence (P36897 34-503): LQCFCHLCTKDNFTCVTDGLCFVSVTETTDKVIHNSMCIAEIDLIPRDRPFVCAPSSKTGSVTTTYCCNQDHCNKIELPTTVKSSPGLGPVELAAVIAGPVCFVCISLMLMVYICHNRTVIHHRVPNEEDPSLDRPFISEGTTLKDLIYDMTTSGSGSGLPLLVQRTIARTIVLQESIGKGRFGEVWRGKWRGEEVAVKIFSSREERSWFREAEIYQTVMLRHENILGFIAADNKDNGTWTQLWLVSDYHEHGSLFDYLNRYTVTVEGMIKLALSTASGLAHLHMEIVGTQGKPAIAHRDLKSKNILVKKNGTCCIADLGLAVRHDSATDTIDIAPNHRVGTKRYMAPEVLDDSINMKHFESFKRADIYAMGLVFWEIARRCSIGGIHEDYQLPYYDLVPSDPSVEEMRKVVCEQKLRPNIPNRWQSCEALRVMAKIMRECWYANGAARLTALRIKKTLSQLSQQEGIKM
In words: Biochemical ALK5 (TGF-βR1) assay to measure pKi (LANCE Ultra ULight kinase assay). The settings on record: apparent pKi from pIC50 by Cheng-Prusoff, read-out: ALK5 pKi (converted). Summed up: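 After a 60 min room-temperature preincubation of ALK5 with compound, phosphorylation proceeds 60 min at 37 °C on ATP addition (125 μM as 5× stock). Detection: Eu-labelled phospho-Thr1342 Topo IIα antibody in EDTA buffer, pH 7.0; emission 665 nm.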
In general terms: In TR-FRET formats the signal depends on donor and acceptor labels being close together.

Experiment [2] relates to TGF-β-stimulated SMAD3 phosphorylation in BEAS-2B cells. In words: Cellular ALK5 potency assay, inhibition of TGF-β stimulated pSMAD3 formation in BEAS-2B cells. The class given is cell-based. The conditions noted are these: Homo sapiens; inhibition of TGF-β stimulated pSMAD3 formation, BEAS-2B cells; read-out: BEAS2B pIC50 (converted). Summed up: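 SMAD3 phosphorylation was measured by AlphaLISA after 30 min TGF-β stimulation (10 ng/mL final) of BEAS-2B cells preincubated 1 h with compound at 37 °C. Results given as pIC50.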

As to `Cc1cccc(-c2n[nH]cc2-c2ccc3nccc(NCCN4CCOCC4)c3n2)n1` [Compound 823, 6-[3-(6-methyl-2-pyridyl)-1H-pyrazol-4-yl]-N-(2-morpholinoethyl)-1,5-naphthyridin-4-amine], in experiment [1], the Ki is 0.398 to 3.16 nM. Besides, the IC50 in experiment [2] was 200 to 1260 nM.
In the same order, the values of `Cc1cccc(-c2[nH]cnc2-c2ccc3ncc(C4=CCC(NCC(CCO)C(=O)O)CC4)cc3c2)n1` (stereo not shown) [Compound 150, 4-hydroxy-2-[[[4-[6-[5-(6-methyl-2-pyridyl)-1H-imidazol-4-yl]-3-quinolyl]cyclohex-3-en-1-yl]amino]methyl]butanoic acid] are < 0.0316 nM and 200 to 1260 nM.
In the same order, the values of `COc1n[nH]c(-c2cccc(C)n2)c1-c1ccc2ncc(-c3cccnc3)cc2n1` [Compound 105, 2-(5-methoxy-3-(6-methylpyridin-2-yl)-1H-pyrazol-4-yl)-7-(pyridin-3-yl)-1,5-naphthyridine] are 0.0398 to 0.316 nM and 25.1 to 158 nM.
In the same order, the values of `Cc1cccc(-c2[nH]cnc2-c2ccc3ncc(-c4cccc(C(=O)OCC5CNC5)c4)cc3c2)n1` [Compound 231, azetidin-3-ylmethyl 3-[6-[5-(6-methyl-2-pyridyl)-1H-imidazol-4-yl]-3-quinolyl]benzoate] are 0.0398 to 0.316 nM and 25.1 to 158 nM.
Turning to `Cc1cccc(-c2[nH]cnc2-c2ccc3ncc(-c4ccc(C(=O)O)cc4)cc3c2)n1` [Compound 145, 4-[6-[5-(6-methyl-2-pyridyl)-1H-imidazol-4-yl]-3-quinolyl]benzoic acid], the Ki in experiment [1] is 0.0398 to 0.316 nM. Also, the IC50 in experiment [2] is 200 to 1260 nM.
In the same order, the values of `Cc1cccc(-c2n[nH]cc2-c2ccc3nccc(N4CCNCC4)c3n2)n1` [Compound 856, 2-[3-(6-methyl-2-pyridyl)-1H-pyrazol-4-yl]-8-piperazin-1-yl-1,5-naphthyridine] are 0.0398 to 0.316 nM and 25.1 to 158 nM.
Turning to `Cc1cccc(-c2nc[nH]c2-c2ccc3ncc(-c4cnn([C@H]5CCCC[C@@H]5N)c4)cc3c2)n1` [Compound 656, (1S,2S)-2-[4-[6-[4-(6-methyl-2-pyridyl)-1H-imidazol-5-yl]-3-quinolyl]pyrazol-1-yl]cyclohexanamine], the Ki in experiment [1] is < 0.0316 nM. Further, the IC50 in experiment [2] is < 20 nM.
In the same order, the values of `Cc1cccc(-c2[nH]cnc2-c2ccc3ncc(-c4cccc(C(=O)OC5CCNCC5)c4)cc3c2)n1` [Compound 224, 4-piperidyl 3-[6-[5-(6-methyl-2-pyridyl)-1H-imidazol-4-yl]-3-quinolyl]benzoate] are 0.0398 to 0.316 nM and 25.1 to 158 nM.
In the same order, the values of `Cc1cccc(-c2n[nH]cc2-c2ccc3ncc(-c4ccc5c(n4)CCNC5)cc3n2)n1` [Compound 678, 2-[3-(6-methyl-2-pyridyl)-1H-pyrazol-4-yl]-7-(5,6,7,8-tetrahydro-1,6-naphthyridin-2-yl)-1,5-naphthyridine] are < 0.0316 nM and 25.1 to 158 nM.
In the same order, the values of `Cc1cccc(-c2n[nH]cc2-c2ccc3ncc(C(=O)NCCCN4CCN(C(C)C)CC4)cc3n2)n1` [Compound 55, N-[3-(4-isopropylpiperazin-1-yl)propyl]-6-[3-(6-methyl-2-pyridyl)-1H-pyrazol-4-yl]-1,5-naphthyridine-3-carboxamide] are 0.0398 to 0.316 nM and 200 to 1260 nM.
As to `Cc1cccc(-c2[nH]ncc2-c2ccc3ncc(C(=O)OCC4CNC4)cc3n2)n1` [Compound 419, azetidin-3-ylmethyl 6-[5-(6-methyl-2-pyridyl)-1H-pyrazol-4-yl]-1,5-naphthyridine-3-carboxylate], the Ki in experiment [1] is 0.0398 to 0.316 nM. In experiment [2], the IC50 is 25.1 to 158 nM.
In the same order, the values of `Cc1nc(-c2nc3ccccn3c2-c2ccc3ncc(-c4cnn5c4CNCC5)cc3n2)ccc1F` [Compound 89, 2-[2-(5-fluoro-6-methyl-2-pyridyl)imidazo[1,2-a]pyridin-3-yl]-7-(4,5,6,7-tetrahydropyrazolo[1,5-a]pyrazin-3-yl)-1,5-naphthyridine] are 0.0398 to 0.316 nM and 25.1 to 158 nM.
In the same order, the values of `Cc1cccc(-c2[nH]cnc2-c2ccc3ncc(-c4nc5c(s4)CNCC5)cc3c2)n1` [Compound 1068, 2-[6-[5-(6-methyl-2-pyridyl)-1H-imidazol-4-yl]-3-quinolyl]-4,5,6,7-tetrahydrothiazolo[5,4-c]pyridine] are 0.0398 to 0.316 nM and < 20 nM.
In the same order, the values of `Cc1cccc(-c2[nH]cnc2-c2ccc3ncc(NCCN4CCC[C@@H](N)C4)cc3c2)n1` [Compound 730, N-[2-[(3R)-3-amino-1-piperidyl]ethyl]-6-[5-(6-methyl-2-pyridyl)-1H-imidazol-4-yl]quinolin-3-amine] are 0.0398 to 0.316 nM and 25.1 to 158 nM.
Regarding `Cc1cccc(-c2n[nH]cc2-c2ccc3ncc(N4CC(C)N(CCN)C(C)C4)cc3n2)n1` (stereo not shown) [Compound 283, 2-[2,6-dimethyl-4-[6-[3-(6-methyl-2-pyridyl)-1H-pyrazol-4-yl]-1,5-naphthyridin-3-yl]piperazin-1-yl]ethanamine], in experiment [1], the Ki was 0.0398 to 0.316 nM. Also, in experiment [2], the IC50 was 200 to 1260 nM.
In the same order, the values of `Cc1cccc(-c2[nH]cnc2-c2ccc3ncc(-c4nc(C(=O)OCCN5CCC[C@@H](N)C5)cs4)cc3c2)n1` [Compound 1252, 2-[(3R)-3-amino-1-piperidyl]ethyl 2-[6-[5-(6-methyl-2-pyridyl)-1H-imidazol-4-yl]-3-quinolyl]thiazole-4-carboxylate] are 0.0398 to 0.316 nM and 25.1 to 158 nM.
On to `CCN1CCN(CCNc2cnc3ccc(-c4c[nH]nc4-c4cccc(C)n4)nc3c2)CC1` [Compound 508, N-[2-(4-ethylpiperazin-1-yl)ethyl]-6-[3-(6-methyl-2-pyridyl)-1H-pyrazol-4-yl]-1,5-naphthyridin-3-amine], for which the Ki in experiment [1] was 0.0398 to 0.316 nM. Further, the IC50 in experiment [2] was 25.1 to 158 nM.
In the same order, the values of `Cc1cccc(-c2n[nH]cc2-c2ccc3ncc(-c4cnn(CCN5CCCC5=O)c4)cc3n2)n1` [Compound 571, 1-[2-[4-[6-[3-(6-methyl-2-pyridyl)-1H-pyrazol-4-yl]-1,5-naphthyridin-3-yl]pyrazol-1-yl]ethyl]pyrrolidin-2-one] are < 0.0316 nM and 25.1 to 158 nM.
In the same order, the values of `Cc1cccc(-c2[nH]ncc2-c2ccc3nccc(C(=O)OC[C@H]4CCCCN4)c3c2)n1` [Compound 1095, [(2R)-2-piperidyl]methyl 6-[5-(6-methyl-2-pyridyl)-1H-pyrazol-4-yl]quinoline-4-carboxylate] are 0.398 to 3.16 nM and 25.1 to 158 nM.
In the same order, the values of `Cc1nc(-c2n[nH]cc2-c2ccc3ncc(-c4cnc5n4CCN5)cc3n2)ccc1F` [Compound 332, 7-(6,7-dihydro-5H-imidazo[1,2-a]imidazol-3-yl)-2-[3-(5-fluoro-6-methyl-2-pyridyl)-1H-pyrazol-4-yl]-1,5-naphthyridine] are < 0.0316 nM and 25.1 to 158 nM.
Consider `COc1ccc(-c2cnc3ccc(-c4c[nH]nc4-c4cccc(C)n4)nc3c2)cn1` [Compound 420, 7-(6-methoxy-3-pyridyl)-2-[3-(6-methyl-2-pyridyl)-1H-pyrazol-4-yl]-1,5-naphthyridine], for which, in experiment [1], the Ki was < 0.0316 nM. Besides, the IC50 in experiment [2] was < 20 nM.
In the same order, the values of `Cc1cccc(-c2n[nH]cc2-c2ccc3nccc(NC(=O)CCN4CCN(C(C)C)CC4)c3n2)n1` [Compound 843, 3-(4-isopropylpiperazin-1-yl)-N-[6-[3-(6-methyl-2-pyridyl)-1H-pyrazol-4-yl]-1,5-naphthyridin-4-yl]propanamide] are 0.398 to 3.16 nM and 25.1 to 158 nM.
In the same order, the values of `COC(=O)CC1CNCCN1CCNc1cnc2ccc(-c3nc[nH]c3-c3cccc(C)n3)cc2c1` (stereo not shown) [Compound 659, methyl 2-[1-[2-[[6-[5-(6-methyl-2-pyridyl)-1H-imidazol-4-yl]-3-quinolyl]amino]ethyl]piperazin-2-yl]acetate] are 0.0398 to 0.316 nM and 200 to 1260 nM.
In the same order, the values of `Cc1cccc(-c2[nH]cnc2-c2ccc3ncc(C4=CCNC4)cc3n2)n1` [Compound 410, 7-(2,5-dihydro-1H-pyrrol-3-yl)-2-[5-(6-methyl-2-pyridyl)-1H-imidazol-4-yl]-1,5-naphthyridine] are 0.0398 to 0.316 nM and 25.1 to 158 nM.
For the molecule `Cc1cccc(-c2[nH]cnc2-c2ccc3ncc(C(=O)O[C@H]4CC[C@@](C)(N)CC4)cc3c2)n1` [Compound 768, (4-amino-4-methyl-cyclohexyl) 6-[5-(6-methyl-2-pyridyl)-1H-imidazol-4-yl]quinoline-3-carboxylate], the Ki in experiment [1] is 0.0398 to 0.316 nM. Further, the IC50 in experiment [2] was 25.1 to 158 nM.
In the same order, the values of `Cc1cccc(-c2n[nH]cc2-c2ccc3ncc(N4CC[C@@H](N5CCCCC5)C4)cc3n2)n1` [Compound 542, 2-[3-(6-methyl-2-pyridyl)-1H-pyrazol-4-yl]-7-[(3R)-3-(1-piperidyl)pyrrolidin-1-yl]-1,5-naphthyridine] are < 0.0316 nM and 25.1 to 158 nM.
